Experimental data from patent US8865672B2, “Prevention of tissue ischemia and related methods” (The United States of America, as represented by the …, priority 2006, dated 2014).

Experiments:
[1] = test system: HASMC; assay: NO-stimulated HASMC adhesion on type I collagen; type: cell-based, human; conditions: DEA/NO 10 μM, 1 h
Protocol: Cell adhesion was carried out in 96-well culture plates. After pre-coating wells with type I collagen (3 μg/ml in DPBS) harvested cells were plated at a density of 1×10^4 cells/well in medium plus 0.1% BSA and treatment agents and incubated in 5% CO2 for 1 h. Wells were washed with PBS and cells fixed with 1% glutaraldehyde for 10 min., washed and stained with 1% crystal violet for 20 min. Excess stain was rinsed away, adherent cells treated with 10% acetic acid, and plates read at 570 nm.

[2] = test system: HASMC; assay: HASMC proliferation (MTS); type: cell-based, human; conditions: DETA/NO 10 μM, 72 h
Protocol: Proliferation of vascular cells was measured with a non-radioactive colorimetric assay (CellTiter 96, Promega, Madison, Wis.). Briefly, to each well of a 96-well culture plate (Nunc, Denmark) 5×10^3 cells were suspended in 100 μl of culture medium with indicated treatments and incubated for 72 hours at 37° C. in a 5% CO2 atmosphere. Following incubation 20 μl of tetrazolium compound/solubilization agent was added and incubation continued for 4 hours under the same conditions. The plate was then read on a MR580 Microelisa Auto Reader (Dynatech) at a wavelength of 490 nm. Appropriate zero time controls were run for all assays and the optical density readings obtained then subtracted from those obtained at 72 hours.

[3] = test system: HASMC; assay: Intracellular cGMP in HASMC; type: cell-based, human; conditions: DEA/NO 10 μM, 5 minutes
[4] = test system: murine ASMC (WT, CD36 null, CD47 null); assay: Intracellular cGMP in murine ASMC; type: cell-based, mouse
Summary of the method: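 Aortic smooth muscle cells from wild-type C57Bl/6, CD36-null or CD47-null mice, passage 1–4, plated overnight in full growth medium. Weaned to SM-GM + 0.1% BSA before treatment with NO donor and other agents. Intracellular cGMP measured by enzyme immunoassay.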

CBD: recombinant C-terminal cell-binding domain (G module) of TSP1
NO-stimulated HASMC adhesion on type I collagen [1]: slightly less active but also dose-dependently inhibited | NO-stimulated HASMC proliferation [2]: inhibited NO-stimulated HASMC proliferation | NO-stimulated cGMP levels in HASMC [3]: equipotent dose-dependent inhibitors | NO-stimulated cGMP ([4]; CD36 null MASMC): completely inhibited | NO-stimulated cGMP ([4]; CD47 null MASMC): did not significantly inhibit
